Measurements from article PMC11322497 (Frontiers in Pharmacology, 2024).

Test system: high fat diet (HFD) rabbit model of metabolic-associated steatohepatitis (MASH)
Assay: HFD rabbit study, prolonged 4-week treatment (weeks 9–12): clinical and biochemical data
Type: in vivo, New Zealand White rabbits
Conditions: HFD rabbits, mean±SD, n=7
Method: After 1 week (W) of RD, the animals (n = 44) were randomly assigned to the following groups (Table 1B): • Control rabbits continued to receive a RD for 12 weeks and were treated with vehicle for 5 days a week (days 1–5, p.o.) during the last 4 weeks before culling (RD + 4W Veh group); • Rabbits received a HFD for 8 weeks and were culled (HFD 8W group); • Rabbits received a HFD for 12 weeks and were treated with vehicle for 5 days a week (days 1–5, p.o.) during the last 4 weeks before culling (HFD+4W Veh group); • Rabbits received a HFD for 12 weeks and were treated with GB1211 (0.3 mg/kg) for 5 days a week (days 1–5, p.o.) during the last 4 weeks before culling (HFD + 4W 0.3 mg group); • Rabbits received a HFD for 12 weeks and were treated with GB1211 (1.0 mg/kg) for 5 days a week (days 1–5, p.o.) during the last 4 weeks before culling (HFD + 4W 1.0 mg group); • Rabbits received a HFD for 12 weeks and were treated with GB1211 (5.0 mg/kg) for 5 days a week (days 1–5, p.o.) during the last 4 weeks before culling (HFD + 4W 5.0 mg group).
The oral glucose tolerance test (OGTT) was performed in accordance with the published method ([Filippi et al., 2009]). Briefly, after an overnight fast, a 50% glucose solution was orally administered to the animals at a dose of 1.5 g/kg. Blood samples were collected before and 15, 30, and 120 min after glucose loading. The incremental area under the curve (iAUC) was calculated by using GraphPad Prism (GraphPad Software, San Diego, CA). Blood samples for analyses were obtained from the marginal ear vein at week 8 or 12, in all groups. All blood samples were collected in standard conditions, before 10 a.m. after an overnight fasting. The blood was immediately centrifuged at 2,000 g for 20 min at 4°C and collected plasma/serum stored at −80°C until assayed. Plasma glucose, total cholesterol, triglycerides, transaminases (AST and ALT), and gamma-glutamyl transferase levels were measured using an automated system (Cobas 8000, Roche Diagnostics International AG, Rotkreuz, Switzerland). Serum alkaline phosphatase, albumin and total bilirubin levels were measured at IDEXX Laboratories (Kornwestheim, Germany), using an automated system (AU480, Beckman-Coulter, Brea, CA) with kinetic and photometric colour tests as per the following methods: alkaline phosphatase - alkaline buffer solution [2-amino-2-methylpropanol (AMP) in conjunction with p-nitrophenyl phosphate (pNPP)], according to the recommendation of the International Federation for Clinical Chemistry; albumin - the reaction of bromocresol green with albumin produces a colour complex, the absorption of which is measured dichromatically ([Doumas et al., 1971]); total bilirubin - a stabilized diazonium salt, 3,5-dichlorophenyldiazonium tetrafluoroborate (DPD), reacts with bilirubin to formazobilirubin, which absorbs at 570 nm ([Tolman and Rej, 1999]).
Mean arterial blood pressure (MAP) was measured by using a polyethylene catheter inserted into a femoral artery at week 8 or 12, after ketamine (10 mg/kg i.v.) and sodium thiopental (50 mg/kg i.v.) sedation.

**Q.** `OC[C@H]1O[C@H](Sc2cncc(Br)c2)[C@H](O)[C@@H](n2cc(-c3cc(F)c(F)c(F)c3)nn2)[C@H]1O` [selvigaltin] was tested. Which ALP (0.3 mg/kg p.o. 5 days/week) did it give?
**A.** Its ALP is 69.43 ± 38.22 U/L.

**Q.** And the ALT (0.3 mg/kg p.o. 5 days/week)?
**A.** Its ALT is 45.71 ± 22.51 U/L.

**Q.** What about the AST (0.3 mg/kg p.o. 5 days/week) of the same molecule?
**A.** The AST was 74.29 ± 51.50 U/L.

**Q.** And the Albumin (0.3 mg/kg p.o. 5 days/week)?
**A.** Its Albumin is 38.29 ± 4.42 g/L.

**Q.** What about the Bilirubin (0.3 mg/kg p.o. 5 days/week) of the same molecule?
**A.** The Bilirubin was 17.91 ± 13.00 µM.

**Q.** And the Glycaemia (0.3 mg/kg p.o. 5 days/week)?
**A.** The Glycaemia was 1.21 ± 0.15 gr/L.

**Q.** What about the “Liver Weight” value (0.3 mg/kg p.o. 5 days/week) of the same molecule?
**A.** Its value is 3.56 ± 0.28 % of BW.

**Q.** And the MAP (0.3 mg/kg p.o. 5 days/week)?
**A.** The MAP was 144.91 ± 16.18 mmHg.

**Q.** What about the “OGTT (iAUC)” value (0.3 mg/kg p.o. 5 days/week) of the same molecule?
**A.** The value was 165.51 ± 20.71.

**Q.** And the “Plasma Cholesterol” value (0.3 mg/kg p.o. 5 days/week)?
**A.** Its value is 2,277.43 ± 1,078.47 mg/dL.

**Q.** And the “Plasma Triglycerides” value (0.3 mg/kg p.o. 5 days/week)?
**A.** Its value is 374.00 ± 619.70 mg/dL.

**Q.** And the “Tissue Triglycerides” value (0.3 mg/kg p.o. 5 days/week)?
**A.** The value was 14.76 ± 2.26 nmol/mg Liver.

**Q.** What about the “VAT Weight” value (0.3 mg/kg p.o. 5 days/week) of the same molecule?
**A.** Its value is 0.67 ± 0.21 % of BW.

**Q.** What about the γGT (0.3 mg/kg p.o. 5 days/week) of the same molecule?
**A.** The γGT was 30.08 ± 22.90 U/L.

**Q.** And the ALP (1.0 mg/kg p.o. 5 days/week)?
**A.** The ALP was 72.86 ± 65.69 U/L.

**Q.** What about the ALT (1.0 mg/kg p.o. 5 days/week) of the same molecule?
**A.** Its ALT is 58.14 ± 27.72 U/L.

**Q.** What about the AST (1.0 mg/kg p.o. 5 days/week) of the same molecule?
**A.** The AST was 59.00 ± 37.48 U/L.

**Q.** And the Albumin (1.0 mg/kg p.o. 5 days/week)?
**A.** The Albumin was 38.71 ± 2.63 g/L.

**Q.** And the Bilirubin (1.0 mg/kg p.o. 5 days/week)?
**A.** Its Bilirubin is 9.53 ± 3.73 µM.

**Q.** What about the Glycaemia (1.0 mg/kg p.o. 5 days/week) of the same molecule?
**A.** The Glycaemia was 1.90 ± 0.87 gr/L.

**Q.** What about the “Liver Weight” value (1.0 mg/kg p.o. 5 days/week) of the same molecule?
**A.** The value was 3.73 ± 0.32 % of BW.

**Q.** What about the MAP (1.0 mg/kg p.o. 5 days/week) of the same molecule?
**A.** The MAP was 151.23 ± 26.21 mmHg.

**Q.** What about the “OGTT (iAUC)” value (1.0 mg/kg p.o. 5 days/week) of the same molecule?
**A.** The value was 189.37 ± 22.39.

**Q.** What about the “Plasma Cholesterol” value (1.0 mg/kg p.o. 5 days/week) of the same molecule?
**A.** The value was 2,182.86 ± 776.09 mg/dL.

**Q.** And the “Plasma Triglycerides” value (1.0 mg/kg p.o. 5 days/week)?
**A.** Its value is 157.29 ± 68.66 mg/dL.

**Q.** And the “Tissue Triglycerides” value (1.0 mg/kg p.o. 5 days/week)?
**A.** The value was 14.34 ± 1.35 nmol/mg Liver.

**Q.** What about the “VAT Weight” value (1.0 mg/kg p.o. 5 days/week) of the same molecule?
**A.** Its value is 0.68 ± 0.24 % of BW.

**Q.** And the γGT (1.0 mg/kg p.o. 5 days/week)?
**A.** The γGT was 27.71 ± 14.16 U/L.

**Q.** And the ALP (5.0 mg/kg p.o. 5 days/week)?
**A.** Its ALP is 49.57 ± 30.84 U/L.

**Q.** And the ALT (5.0 mg/kg p.o. 5 days/week)?
**A.** Its ALT is 56.43 ± 20.02 U/L.

**Q.** What about the AST (5.0 mg/kg p.o. 5 days/week) of the same molecule?
**A.** The AST was 62.43 ± 15.80 U/L.

**Q.** What about the Albumin (5.0 mg/kg p.o. 5 days/week) of the same molecule?
**A.** Its Albumin is 39.29 ± 5.94 g/L.

**Q.** What about the Bilirubin (5.0 mg/kg p.o. 5 days/week) of the same molecule?
**A.** The Bilirubin was 15.45 ± 9.05 µM.

**Q.** What about the Glycaemia (5.0 mg/kg p.o. 5 days/week) of the same molecule?
**A.** Its Glycaemia is 1.43 ± 0.35 gr/L.

**Q.** What about the “Liver Weight” value (5.0 mg/kg p.o. 5 days/week) of the same molecule?
**A.** Its value is 3.56 ± 0.16 % of BW.

**Q.** And the MAP (5.0 mg/kg p.o. 5 days/week)?
**A.** The MAP was 141.04 ± 30.52 mmHg.

**Q.** And the “OGTT (iAUC)” value (5.0 mg/kg p.o. 5 days/week)?
**A.** The value was 165.00 ± 2.65.

**Q.** What about the “Plasma Cholesterol” value (5.0 mg/kg p.o. 5 days/week) of the same molecule?
**A.** Its value is 1,546.43 ± 350.47 mg/dL.

**Q.** And the “Plasma Triglycerides” value (5.0 mg/kg p.o. 5 days/week)?
**A.** Its value is 191.43 ± 234.40 mg/dL.

**Q.** What about the “Tissue Triglycerides” value (5.0 mg/kg p.o. 5 days/week) of the same molecule?
**A.** Its value is 14.51 ± 1.49 nmol/mg Liver.

**Q.** What about the “VAT Weight” value (5.0 mg/kg p.o. 5 days/week) of the same molecule?
**A.** The value was 0.87 ± 0.32 % of BW.

**Q.** And the γGT (5.0 mg/kg p.o. 5 days/week)?
**A.** The γGT was 21.29 ± 13.11 U/L.
